Test results as given in ChEMBL document CHEMBL5376003, “Structure-Activity Relationship of FL118 Platform Position 7 Versus Position 9-Derived Compounds and Their Mechanism of Action and Antitumor Activity” (J Med Chem, 2023).
Activity calls are given as the source filed them. The calls are words filed in the database; no cut-off is given here.

Tests used:
[1] = test system: HCT-116; experiment: Induction of apoptosis in human HCT-116 cells assessed as increase in intracellular ROS level at 10 to 1000 nM incubated for 4 to 8 hrs by DCFH-DA staining based fluorescence microscopy; format: functional, cell-based; conditions: dose 10-1000 nM, time 4-8 hrs
[2] = test system: HCT-116; experiment: Inhibition of cell migration in human HCT-116 cells assessed as intercellular distance at 5 nM by inverted phase-contrast microscopic analysis (reference value: 2.5 +/- 0.7 millimeter); format: functional
[3] = test system: HCT-116; experiment: Induction of apoptosis in human HCT-116 cells assessed as upregulation of DDX5 mRNA expression at 500 nM incubated for 6 hrs by RNA analysis; format: functional, cell-based
[4] = test system: HCT-116; experiment: Induction of apoptosis in human HCT-116 cells assessed as modulation of TOP3A mRNA expression at 10 to 500 nM incubated for 6 to 48 hrs by RNA analysis; format: functional, cell-based; conditions: dose 10-500 nM, time 6-48 hrs
[5] = test system: HCT-116; experiment: Induction of apoptosis in human HCT-116 cells assessed as modulation of DDX19B mRNA expression at 10 to 500 nM incubated for 6 to 48 hrs by RNA analysis; format: functional, cell-based; conditions: dose 10-500 nM, time 6-48 hrs
[6] = test system: HCT-116; experiment: Induction of apoptosis in human HCT-116 cells assessed as upregulation of CDKN1A mRNA expression at 10 to 500 nM incubated for 6 to 48 hrs by RNA analysis; format: functional, cell-based; conditions: dose 10-500 nM, time 6-48 hrs
[7] = test system: HCT-116; experiment: Induction of apoptosis in human HCT-116 cells assessed as downregulation of BCL2 mRNA expression at 10 to 500 nM incubated for 6 to 48 hrs by RNA analysis; format: functional, cell-based; conditions: dose 10-500 nM, time 6-48 hrs
[8] = test system: HCT-116; experiment: Induction of apoptosis in human HCT-116 cells assessed as downregulation of RFC3 mRNA expression at 10 to 500 nM incubated for 6 to 48 hrs by RNA analysis; format: functional, cell-based; conditions: dose 10-500 nM, time 6-48 hrs
[9] = test system: HCT-116; experiment: Induction of apoptosis in human HCT-116 cells assessed as upregulation of USP11 mRNA expression at 10 to 500 nM incubated for 6 to 48 hrs by RNA analysis; format: functional, cell-based; conditions: dose 10-500 nM, time 6-48 hrs
[10] = test system: HCT-116; experiment: Activation of innate immune response in human HCT-116 cells assessed as upregulation of IL-1A gene expression at 10 to 500 nM incubated for 6 to 48 hrs by RNA analysis; format: functional, cell-based; conditions: dose 10-500 nM, time 6-48 hrs
[11] = test system: HCT-116; experiment: Activation of innate immune response in human HCT-116 cells assessed as upregulation of IRF5 gene expression at 10 to 500 nM incubated for 6 to 48 hrs by RNA analysis; format: functional, cell-based; conditions: dose 10-500 nM, time 6-48 hrs
[12] = test system: HCT-116; experiment: Induction of apoptosis in human HCT-116 cells assessed as downregulation of NDC1 gene expression at 10 to 500 nM incubated for 6 to 48 hrs by RNA analysis; format: functional, cell-based; conditions: dose 10-500 nM, time 6-48 hrs
[13] = test system: HCT-116; experiment: Induction of apoptosis in human HCT-116 cells assessed as downregulation of NUP107 gene expression at 10 to 500 nM incubated for 6 to 48 hrs by RNA analysis; format: functional, cell-based; conditions: dose 10-500 nM, time 6-48 hrs
[14] = test system: HCT-116; experiment: Induction of apoptosis in human HCT-116 cells assessed as downregulation of NUP133 gene expression at 10 to 500 nM incubated for 6 to 48 hrs by RNA analysis; format: functional, cell-based; conditions: dose 10-500 nM, time 6-48 hrs
[15] = test system: HCT-116; experiment: Induction of apoptosis in human HCT-116 cells assessed as downregulation of NUP160 gene expression at 10 to 500 nM incubated for 6 to 48 hrs by RNA analysis; format: functional, cell-based; conditions: dose 10-500 nM, time 6-48 hrs
[16] = test system: HCT-116; experiment: Induction of apoptosis in human HCT-116 cells assessed as downregulation of NUDT1 gene expression at 10 to 500 nM incubated for 6 to 48 hrs by RNA analysis; format: functional, cell-based; conditions: dose 10-500 nM, time 6-48 hrs
[17] = test system: HCT-116; experiment: Induction of apoptosis in human HCT-116 cells assessed as downregulation of ATIC gene expression at 10 to 500 nM incubated for 6 to 48 hrs by RNA analysis; format: functional, cell-based; conditions: dose 10-500 nM, time 6-48 hrs
[18] = test system: HCT-116; experiment: Induction of apoptosis in human HCT-116 cells assessed as downregulation of NT5C gene expression at 10 to 500 nM incubated for 6 to 48 hrs by RNA analysis; format: functional, cell-based; conditions: dose 10-500 nM, time 6-48 hrs
[19] = test system: HCT-116; experiment: Induction of apoptosis in human HCT-116 cells assessed as downregulation of NT5C2 gene expression at 10 to 500 nM incubated for 6 to 48 hrs by RNA analysis; format: functional, cell-based; conditions: dose 10-500 nM, time 6-48 hrs
[20] = test system: HCT-116; experiment: Induction of apoptosis in human HCT-116 cells assessed as downregulation of NUDT15 gene expression at 10 to 500 nM incubated for 6 to 48 hrs by RNA analysis; format: functional, cell-based; conditions: dose 10-500 nM, time 6-48 hrs
[21] = test system: HCT-116; experiment: Induction of apoptosis in human HCT-116 cells assessed as downregulation of TK1 gene expression at 10 to 500 nM incubated for 6 to 48 hrs by RNA analysis; format: functional, cell-based; conditions: dose 10-500 nM, time 6-48 hrs
[22] = test system: HCT-116; experiment: Induction of apoptosis in human HCT-116 cells assessed as downregulation of TXNRD1 gene expression at 10 to 500 nM incubated for 6 to 48 hrs by RNA analysis; format: functional, cell-based; conditions: dose 10-500 nM, time 6-48 hrs
[23] = test system: HCT-116; experiment: Induction of apoptosis in human HCT-116 cells assessed as downregulation of UMPS gene expression at 10 to 500 nM incubated for 6 to 48 hrs by RNA analysis; format: functional, cell-based; conditions: dose 10-500 nM, time 6-48 hrs
[24] = test system: HCT-116; experiment: Induction of apoptosis in human HCT-116 cells assessed as downregulation of PRKACB gene expression at 10 to 500 nM incubated for 6 to 48 hrs by RNA analysis; format: functional, cell-based; conditions: dose 10-500 nM, time 6-48 hrs
[25] = target: T1, DNA topoisomerase 1 (Homo sapiens) (UniProt P11387); experiment: Inhibition of topoisomerase 1 (unknown origin) assessed as relaxation of supercoiled plasmid pBR322 DNA at 25 to 100 uM incubated for 30 mins by ethidium bromide staining based agarose gel electrophoresis; conditions: dose 25-100 µM
T1 sequence (whole entry): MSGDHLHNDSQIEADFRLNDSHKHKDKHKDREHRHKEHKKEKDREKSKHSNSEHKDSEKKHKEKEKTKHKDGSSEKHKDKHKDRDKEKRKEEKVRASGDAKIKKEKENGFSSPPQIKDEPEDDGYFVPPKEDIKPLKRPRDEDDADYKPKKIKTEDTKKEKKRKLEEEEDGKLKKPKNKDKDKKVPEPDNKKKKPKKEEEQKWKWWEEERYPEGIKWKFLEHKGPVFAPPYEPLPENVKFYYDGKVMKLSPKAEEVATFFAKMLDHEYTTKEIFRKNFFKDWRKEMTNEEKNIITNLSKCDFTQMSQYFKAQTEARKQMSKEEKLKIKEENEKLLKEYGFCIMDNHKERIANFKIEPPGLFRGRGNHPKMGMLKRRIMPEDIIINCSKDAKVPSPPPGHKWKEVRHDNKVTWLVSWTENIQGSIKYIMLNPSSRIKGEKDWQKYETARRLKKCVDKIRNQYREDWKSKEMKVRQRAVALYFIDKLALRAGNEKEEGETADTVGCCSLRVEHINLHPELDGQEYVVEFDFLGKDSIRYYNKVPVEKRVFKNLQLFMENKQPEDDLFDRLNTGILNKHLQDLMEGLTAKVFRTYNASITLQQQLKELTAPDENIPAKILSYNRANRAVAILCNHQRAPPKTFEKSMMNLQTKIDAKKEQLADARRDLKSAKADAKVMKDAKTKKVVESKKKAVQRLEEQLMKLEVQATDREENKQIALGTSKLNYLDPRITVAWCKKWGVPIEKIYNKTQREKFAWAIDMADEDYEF

Structure (SMILES)	Activity [1]	Activity [2] [mm]	Activity [3]	Activity [4]	Activity [5]	Activity [6]	Activity [7]	Activity [8]	Activity [9]	Activity [11]	Activity [12]	Activity [13]	Activity [14]	Activity [15]	Activity [16]	Activity [17]	Activity [18]	Activity [19]	Activity [21]	Activity [22]	further results
CC[C@@]1(O)C(=O)OCc2c1cc1n(c2=O)Cc2cc3cc4c(cc3nc2-1)OCO4	Active	2.6	Active	Active	Active	Active	Active	Active	Active	Active	Active	Active	Active	Active	Active	Active	Active	Active	Active	Active	Activity [10]: Active; Activity [20]: Active; Activity [23]: Active; Activity [24]: Active
CC[C@@]1(O)C(=O)OCc2c1cc1n(c2=O)Cc2c-1nc1cc3c(cc1c2-c1cc(OC)cc(OC)c1)OCO3	Active	2.7	Active	Active	Active	Active	Active	Active	Active	Active	Active	Active	Active	Active	Active	Active	Active	Active	Active	Active	Topoisomerase 1 inhibition [25]: Active; Activity [23]: Active
CCc1ccc(-c2c3c(nc4cc5c(cc24)OCO5)-c2cc4c(c(=O)n2C3)COC(=O)[C@]4(O)CC)cc1	Active	2.6	Active	Active	Active	Active	Active	Active	Active	Active	Active	Active	Active	Active	Active	Active	Active	Active	Active	Active	Topoisomerase 1 inhibition [25]: Active; Activity [10]: Active; Activity [20]: Active; Activity [23]: Active; Activity [24]: Active
CC[C@@]1(O)C(=O)OCc2c1cc1n(c2=O)Cc2c-1nc1cc3c(cc1c2-c1ccc(OC)cc1)OCO3	Active	2.8	Active	Active	Active	Active	Active	Active	Active	Active	Active	Active	Active	Active	Active	Active	Active	Active	Active	Active	Topoisomerase 1 inhibition [25]: Active; Activity [10]: Active; Activity [20]: Active; Activity [23]: Active; Activity [24]: Active
